Data on two compounds can be found in US20220232831A1, “NOVEL NON-CODING HETEROCYCLIC AMINO ACIDS (NCHAA) AND THEIR USE AS HERBICIDES” (Fortephest Ltd., priority 2019, published 2022).

In test [1] the test system is Romaine lettuce (Lactuca sativa L.) plants. The experiment in a line: Post-emergency herbicidal activity on Romaine lettuce plants. It counts as in vivo. The following applies: Romaine lettuce at stage 2 to 3 leaves; compound in 0.1% Silwet, up to 0.5%; visual evaluation vs control plants. The method, boiled down: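 Plants at the 2 to 3 leaf stage were treated with compound in 0.1% aqueous Silwet at 0.0% (Control) to 0.5%, with 20 to 40 plants per test. Vigor, height and leaf color were scored 0 (dead) to 100 (healthy) at 7, 14 and 21 DAA, and aboveground wet weight was measured.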

The test system of test [2] is Marianum (Thistle). The experiment in a line: Herbicidal activity on development of weeds and crops (pot test). In kind it is in vivo, Silybum marianum. Particulars: 32 days after application, 0 = dead, 100% = healthy. How it is done: (§1) The experiment included 225 pots. Weed seeds were sawn in 0.3-liter pots, containing medium-heavy clay-loam soil from Newe Ya'ar Research Center organic fields (55% clay, 23% silt, 20% sand, 2% organic matter, pH 7.1). The experiment was conducted in a completely randomized design. Each treatment was replicated 5 times (5 pots). The herbicides were applied at 200 L/ha with a motorized sprayer equipped with a Tee Jet 8001E nozzle (Spraying Systems Co., North Ave., Wheaton, Ill. 60188, USA) and operated at a pressure of 300 kPa. The pots were transferred to a glasshouse 24 hours after herbicide application and were sprinkler irrigated to field capacity of the soil. The plants were grown in the glasshouse during the entire experiment. Plant development at 6, 12, 19, 26 and 32 days after application (DAA) were evaluated on a scale of 0 to 100%, in which 0 represents dead plants and 100% represents healthy plants according to plant vigor, height, and leaf color.
(§2) Phalaris minor (Cannarygrass); Setaria verticillata (Bristlegrass); Solanum nigrum (Black nightshade) Sinapis arvensis (Mustard); Silybum marianum (Thistle); Chenopodium album (Lambsquarter); Amaranthus (Pigweed); Fodder corn; Avena sativa (Cultured oats.
(§3) Plant development was evaluated on a scale of 0 to 100%, in which 0 represents dead plants and 100% represents healthy plants according to plant vigor, height, and leaf color.

The subject of test [3] is Seeds of Lettuce R. (Super-Jericho). Nature of the test: Filter paper bioassay with lettuce seeds (germination and early plant development). The following applies: lettuce seeds on filter paper; 1, 0.1, 0.01, 0.001 mM; radicle and shoots assessed after 6 days. It counts as in vivo. The method, boiled down:
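Lettuce seeds (10 per plate) were placed on filter paper with 2.0 ml water or test material at 1, 0.1, 0.01 or 0.001 mM. Plates were kept dark for 48 h, then grown 4 days at 22° C under a 6/18 dark/light cycle. At day 6, radicle and shoot development was scored visually; MEC is the lowest concentration causing deviation from control.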

The test system of test [4] is Sinapis arvensis (Mustard). The experiment in a line: Herbicidal activity on development of weeds and crops (pot test). It counts as in vivo. Particulars: 32 days after application, 0 = dead, 100% = healthy. How it is done:
as §1, §2, §3

The subject of test [5] is Chenopodium album (Lambsquarter). The description is as above. The following applies: 32 days after application, 0 = dead, 100% = healthy. In kind it is in vivo. On the procedure: as §1, §2, §3
The subject of test [6] is Avena sativa (Cultured oats). The test is described as above. The following applies: Avena sativa (crop); 32 days after application; 0 = dead, 100% = healthy. In kind it is in vivo. How it is done:
as §1, §2, §3

Test [7] relates to Amaranthus blitoides (Pigweed). Described as above. It counts as in vivo. The following applies: 32 days after application, 0 = dead, 100% = healthy. How it is done: as §1, §2, §3
The test system of test [8] is Phalaris minor (Cannarygrass). The test is described as above. In kind it is in vivo. The following applies: 32 days after application, 0 = dead, 100% = healthy. How it is done: as §1, §2, §3
The test system of test [9] is Solanum nigrum (Black nightshade). The test is described as above. In kind it is in vivo. The following applies: 32 days after application, 0 = dead, 100% = healthy. On the procedure:
as §1, §2, §3

Test [10] has as its system Setaria verticillata (Bristlegrass). The test is described as above. It counts as in vivo. The following applies: 32 days after application, 0 = dead, 100% = healthy. How it is done:
as §1, §2, §3

Test [11] relates to Fodder Corn. Described as above. In kind it is in vivo. The following applies: Fodder corn (crop); 32 days after application; 0 = dead, 100% = healthy. On the procedure: as §1, §2, §3

Regarding `NC(Cc1cc(Cl)sc1Cl)C(=O)O` (stereo not shown) [Code 517, 2-amino-3-(2,5-dichlorothiophen-3-yl)propanoic acid], the “post-emergency herbicidal activity (Activity Index: plant's development vs Control)” value in test [1] is “Maximal (Less than 15)”. For the same compound, the “Plants' Development (% of Control group) following treatment with NCHAAs” value in [2] came out at 35%; in test [4], 0%; in test [5] it was 10%; in [6] it was 100%; in test [7], 10%; in [8] it was 60%. The figures for the “Plants' Development (% of Control group) following treatment with NCHAAs” value in test [9], in test [10] and in test [11] were 15%, 100% and 90%, respectively. In [3], the “Minimal Effective Concentration (MEC) as activity score, seeds germination & early plants development” value was “Maximal (0.01 mM and less)”.
In the case of `NC(Cc1ccnc(Br)c1)C(=O)O` (stereo not shown) [Code 632, 2-amino-3-(2-bromopyridin-4-yl)propanoic acid], the “post-emergency herbicidal activity (Activity Index: plant's development vs Control)” value in [1] is listed as “Maximal (Less than 15)”. The “Plants' Development (% of Control group) following treatment with NCHAAs” value in [2] is on record as 15%; in [4] it was 80%; in test [5], 20%; in [6], 100%; in test [7] it was 100%; in [8], 10%. The “Plants' Development (% of Control group) following treatment with NCHAAs” value came out at 25% in test [9], 20% in [10] and 100% in [11]. In test [3], the “Minimal Effective Concentration (MEC) as activity score, seeds germination & early plants development” value was “Strong (0.1 mM)”.
